Consider three compounds from US8258137B2, “Process for release of biologically active species from mesoporous oxide systems” (Katholieke Universiteit Leuven, priority 2008, dated 2012).

Values after ≈ are worked out from the molar mass of the structure shown. Like-named read-outs stand apart in the source and are kept apart here.

The conditions of data set [1]: background values, cited from earlier work.
For data set [2] the following is noted: J. Voorspoels et al., The Veterinary Record (October 1999); cited from earlier work.
Data set [3] can be described thus: Equilibrium solubility of itraconazole in FaSSIF. The note with it: thermodynamic from solid; FaSSIF pH 6.5, 37° C., equilibration up to one week. In kind it is physicochemical.
The subject of a further data set is Caco-2 cell monolayer. The data set is described as follows: Caco-2 cell monolayer transport. Type of data set: in vitro ADME. The procedure:
As receiver medium for Caco-2 transport experiments, 0.2 wt.-% TPGS (D-α-tocopherol polyethylene glycol 1000 succinate, commercially available from Eastman, Anglesey, England) in transport medium (hereinafter referred to as TM) [HBSS Hanks' Balanced Salt Solution supplemented with glucose to obtain a final concentration of 25 mM, commercially available from Sigma-Aldrich, Steinheim, Germany and Hepes-buffer (10 mM, pH 7.4, N-2-hydroxyethylpiperazine-N′-2-ethanesulfonic acid, commercially available from Lonza, Verviers, Belgium)] was used. To maintain sink conditions, TPGS was included in the medium added to the basolateral side of the Caco-2 cell monolayer.
Caco-2 cells were purchased from Cambrex Biosciences, Walkersville, Md., United States of America. Caco-2 cells were grown in 75 cm^2 culture flasks at 37° C. in an atmosphere of 5% CO2 and 90% relative humidity. Cells were passaged every 3-4 days (at 70-80% confluence) at a split ratio of 1 to 7. Cells were negative for Mycoplasma infection.
For transport experiments, Caco-2 cells were plated at a density of 88,500 cells/insert on Costar® Transwell membrane inserts (3 μm pore diameter, 12 mm diameter; commercially available from Corning Inc., New York). Confluence was reached within 3-4 days after seeding and the monolayers were used for the experiments 18-19 days post-seeding. Cell passages between 50 and 85 were used in the experiments. Transepithelial Electrical Resistance (hereinafter referred as TEER) values were measured with an EndOhm Voltohmmeter (commercially available from WPI, Aston, England). Only monolayers with initial TEER values higher than 200 Ω·cm^2 were used. All volumes amounted to 0.5 mL at the apical side of the monolayer and 1.5 mL at the basolateral side. After rinsing the monolayers 3 times with TM, a pre-incubation step (30 minutes) with TM (control) was performed.
[…] The samples were diluted with methanol (1:1 volume ratio) and itraconazole concentration was determined by HPLC. TEER values were measured again at the end of the experiment and were higher than 95% of the initial value.
A general note: Caco-2 monolayers are a common model of the intestinal barrier.

Data set [4] can be described thus: Oral pharmacokinetics in rabbits. In kind it is in vivo, New Zealand White rabbits. The note with it: for Tmax: oral. The procedure:
Prior to oral drug administration, the rabbits (n=5) were fasted overnight (>12 hours). After receiving the oral dose, 3 mL of water was administered to facilitate swallowing. After 4 hours, the rabbits had free access to food and water. A wash out period of seven days was allowed between subsequent dose administrations. […] Plasma was then transferred to a fresh Eppendorf tube and frozen at −20° C. prior to analysis.

The nature of data set [5]: Oral pharmacokinetics in dogs. The settings on record: for systemic exposure after oral dosing (HPLC-UV): dogs, oral 20 mg, 4 dogs. The procedure:
Details of the dog's experiments were as follows: Marshall Beagle dogs (1.5-3 years of age, 7.1-10.0 kg, male) were housed according to Belgian laws and European regulations for animal experiments, and with free access to water and food. The comparative bioavailability study was performed according to a cross-over design (n=5). After administration of the capsules, 10 mL of water was given to facilitate swallowing. The evaluation of the formulation containing pure crystalline itraconazole was performed with 4 dogs. Blood samples (2.5 mL) were collected from the vena jugularis before dosing and at 0.25, 0.5, 1, 2, 3, 4, 6, 8 hours respectively after dosing. Immediately after blood collection, plasma was harvested by centrifugation at 2,500 g for 10 minutes. Plasma was then transferred to a fresh tube and frozen at −20° C. prior to analysis.
The mobile phase consisted of a methanol/25 mM sodium acetate mixture (78/22 by volume) at pH 3.3.
The maximal plasma concentrations (Cmax) and the time (Tmax) required to reach Cmax were determined from the individual time versus concentration profiles. Systemic exposure was determined by calculating AUC0-24h (rabbits) and AUC0-8h (dogs) using the linear trapezoidal rule. Pharmacokinetic parameters between the three formulations tested were statistically compared with the non-parametric Wilcoxon signed-rank test. The level of significance was set at p<0.03 for comparing two out of three groups.

The conditions of data set [6]: male, Wistar, rat, in vivo.
Method: Male Wistar rats of about 350 g were anaesthetized with a ketamin (Anesketin, commercially available from Eurovet, Heusden, Belgium)—xylazin (Xyl-M 2%, commercially available from VMD, Arendonk, Belgium) mixture (87.5 and 8.75 mg/kg respectively). The left jugular vein was cannulated with a heparinized (50 IU·mL^−1) polyethylene cannula (1.02 mm outer diameter; commercially available from Portex, Kent, United Kingdom) for blood supply from a donor rat during the perfusion experiment. A laparotomy was performed and the small intestine was exposed. A segment of the ileum (4-10 cm) was isolated by inserting two glass cannulas (4 mm o.d., 3 mm i.d.) at the proximal and distal end of the segment. Polyethylene tubing (6.5 mm o.d., 3.1 mm i.d.) was connected to the inlet cannula. The intestinal content was removed by perfusing the segment with pre-warmed TM (38° C.) at a flow rate of 3 mL/min. The perfusion pump (Minipuls3, commercially available from Gilson, Middleton, USA) was placed between the reservoir and the inlet cannula. After pre-incubation of the intestine with TM, the mesenteric vein draining the isolated part of the ileum was cannulated using the top end (1 cm) of a catheter (Insyte-W® 0.7×19 mm, commercially available from Beckton Dickinson, Salt Lake City, Utah). […]
Plasma concentrations of itraconazole were determined by HPLC as follows. […]

For the compound `CS(=O)(=O)c1ccc([C@@H](O)[C@@H](CF)NC(=O)C(Cl)Cl)cc1` [florfenicol, D-(threo)-1-p-methylsulfonyl phenyl-2-dichloroacetamido-3-fluoro-1-propanol], the figures for the water-solubility in data set [1] and in data set [1] (listed as Florfenicol) were 1300 µg/mL and “about 1.3 mg/mL”, respectively. In addition, the oral bioavailability result in data set [2] was “good oral bioavailability”.
Compound `CCC(C)n1ncn(-c2ccc(N3CCN(c4ccc(OCC5COC(Cn6cncn6)(c6ccc(Cl)cc6Cl)O5)cc4)CC3)cc2)c1=O` (centres unmarked) [itraconazole] returned a thermodynamic solubility in data set [3] of 0.4 µM (≈ 0.282 µg/mL). Moreover, the “total transport of itraconazole after 90 minutes” value is 1.2 µg with Caco-2 cell monolayer (donor: 10 μM supersaturated condition in FaSSIF (solvent shift)), 2.2 µg in the data set on Caco-2 cell monolayer (donor: 75 μM supersaturated condition in FaSSIF (solvent shift)) and 0.09 µg in the data set on Caco-2 cell monolayer (donor: saturated itraconazole solution in FaSSIF). In addition, the Tmax turned out to be 9.8 h in data set [4] (female, New Zealand White, rabbit, plasma, 8 mg) and 10 h in data set [4] (female, New Zealand White, rabbit, plasma, 8.4 mg). Besides, in data set [4] (female, New Zealand White, rabbit, plasma, po, 8 mg, single oral capsule dose about 8 mg, n=5, read-out: AUC0-24 h itraconazole), the AUC(0-t) stood at 0.521 µM·h. Also, in data set [4] (single oral capsule dose about 8 mg, n=5, listed as crystalline itraconazole), the AUC0-24 h itraconazole was 0.52 µM·h. For the same compound, the “systemic exposure after oral dosing (HPLC-UV)” value in data set [5] (listed as crystalline itraconazole) is “no systemic itraconazole could be detected”; in data set [5] (listed as pure crystalline itraconazole), “no systemic concentrations of itraconazole and its main metabolite hydroxy-itraconazole could be observed”. The compound further gave an AUC0-8 h itraconazole in data set [5] (male, Marshall Beagle, dog, in vivo, po, 20 mg) of 0 ± 0 µM·h. Further, the entries for the “Total transport after 60 minutes” value in data set [6] and in data set [6] (75 μM) were 0.03 nmol/cm and 0.50 nmol/cm, respectively.
In the case of `CC(C)(C)c1ccc(C(O)CCCN2CCC(C(O)(c3ccccc3)c3ccccc3)CC2)cc1` (centres unmarked) [terfenadine], in data set [1], the water-solubility result is recorded as “less than 0.01 mg/mL”.

The solubility (thermodynamic) is solubility found after equilibrating the solid with the medium. Broadly, the Tmax is the time from dosing to the highest level.
